This passage reports IC50 results from patent US10975084B2, “KDM5 inhibitors” (Merck Sharp & Dohme Corp., priority 2016, dated 2021).

Structures are written as SMILES.

The target of the test is KDM5B (Homo sapiens (Human), UniProt Q9UGL1). Kind of test: KDM5B TR-FRET Enzyme Activity Assay. The format is biochemical. As to conditions: LANCE TR-FRET; 5 nM full-length recombinant KDM5B; ten point titration 100000 nM to 5.08 nM. In outline: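 Full-length KDM5B from Sf21 cells (5 nM) was preincubated 30 min with compound in HEPES pH 7.3 buffer with ascorbate and 2 μM Fe(II). Reaction with 500 nM biotinylated H3K4Me3 peptide and 500 nM α-ketoglutarate ran 60 min. Product was detected by TR-FRET (Eu-anti-H3K4Me1-2/streptavidin-Dylight 650, 665/615 ratio); IC50 came from a 4-parameter fit.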
A general note: Time-resolved FRET reads energy transfer from a long-lived donor to a nearby acceptor.

Chain of KDM5B (Q9UGL1 whole entry): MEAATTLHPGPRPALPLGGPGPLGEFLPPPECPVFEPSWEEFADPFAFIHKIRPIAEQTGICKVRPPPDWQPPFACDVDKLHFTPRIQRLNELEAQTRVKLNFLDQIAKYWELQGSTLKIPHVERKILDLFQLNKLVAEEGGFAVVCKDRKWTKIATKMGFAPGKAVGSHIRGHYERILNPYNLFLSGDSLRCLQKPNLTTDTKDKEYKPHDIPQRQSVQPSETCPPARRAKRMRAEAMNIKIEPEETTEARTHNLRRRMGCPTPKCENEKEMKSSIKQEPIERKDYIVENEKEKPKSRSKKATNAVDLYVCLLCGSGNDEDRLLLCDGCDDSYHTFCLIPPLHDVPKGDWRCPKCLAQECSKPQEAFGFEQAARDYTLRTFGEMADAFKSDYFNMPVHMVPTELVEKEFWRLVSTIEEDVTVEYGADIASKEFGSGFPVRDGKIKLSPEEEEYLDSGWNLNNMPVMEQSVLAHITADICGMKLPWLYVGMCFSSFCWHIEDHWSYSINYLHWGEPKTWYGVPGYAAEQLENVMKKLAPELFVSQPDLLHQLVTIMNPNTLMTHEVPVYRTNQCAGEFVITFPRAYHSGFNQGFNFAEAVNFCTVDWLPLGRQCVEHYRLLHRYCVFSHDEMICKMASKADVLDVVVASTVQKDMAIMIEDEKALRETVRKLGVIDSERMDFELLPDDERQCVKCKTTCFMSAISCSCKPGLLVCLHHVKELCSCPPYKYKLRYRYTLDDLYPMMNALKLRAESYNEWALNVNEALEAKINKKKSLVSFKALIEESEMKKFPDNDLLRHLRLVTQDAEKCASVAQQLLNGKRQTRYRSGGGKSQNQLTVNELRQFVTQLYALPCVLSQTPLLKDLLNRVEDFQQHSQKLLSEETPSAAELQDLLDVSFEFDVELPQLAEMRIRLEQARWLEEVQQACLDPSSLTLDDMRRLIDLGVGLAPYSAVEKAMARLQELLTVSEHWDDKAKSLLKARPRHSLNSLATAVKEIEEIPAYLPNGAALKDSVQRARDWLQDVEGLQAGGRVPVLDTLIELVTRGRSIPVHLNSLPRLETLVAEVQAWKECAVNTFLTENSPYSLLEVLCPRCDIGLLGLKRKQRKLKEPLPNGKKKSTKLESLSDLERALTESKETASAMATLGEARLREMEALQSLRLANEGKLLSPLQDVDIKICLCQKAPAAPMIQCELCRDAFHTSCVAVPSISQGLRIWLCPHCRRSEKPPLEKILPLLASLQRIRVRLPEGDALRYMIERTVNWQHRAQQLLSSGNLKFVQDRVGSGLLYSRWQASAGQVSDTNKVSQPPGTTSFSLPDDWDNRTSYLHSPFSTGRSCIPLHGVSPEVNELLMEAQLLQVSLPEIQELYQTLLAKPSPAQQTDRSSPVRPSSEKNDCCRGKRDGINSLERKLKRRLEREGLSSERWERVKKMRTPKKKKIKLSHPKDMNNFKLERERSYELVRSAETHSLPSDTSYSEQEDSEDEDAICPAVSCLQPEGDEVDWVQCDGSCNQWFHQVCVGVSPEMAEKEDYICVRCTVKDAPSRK

As for `CC(C)c1c(-c2ccnc(C(F)(F)F)c2)[nH]c2ncnn2c1=O` [Example 11-120, 6-(1-methylethyl)-5-[2-(trifluoromethyl)pyridin-4-yl][1,2,4]triazolo[1,5-a]pyrimidin-7(4H)-one], the IC50 (commonly the concentration needed to halve the response being measured) was 0.017 µM.
With `CC(C)c1c(-c2cncc(C(C)(C)O)c2)[nH]c2ncnn2c1=O` [Example 11-121, 5-[5-(1-hydroxy-1-methylethyl)pyridin-3-yl]-6-(1-methylethyl)[1,2,4]triazolo[1,5-a]pyrimidin-7(4H)-one] the figure was 0.0435 µM; with `CC(C)c1c(-c2cn[nH]c2)[nH]c2ncnn2c1=O` [Example 11-122, 6-(1-methylethyl)-5-(1H-pyrazol-4-yl)[1,2,4]triazolo[1,5-a]pyrimidin-7(4H)-one], 0.0133 µM; with `CC(C)c1c(-c2ccc3c(c2)CC(=O)N3)[nH]c2ncnn2c1=O` [Example 11-123, 6-(1-methylethyl)-5-(2-oxo-2,3-dihydro-1H-indol-5-yl)[1,2,4]triazolo[1,5-a]pyrimidin-7(4H)-one], 0.00693 µM.
As to `CC(C)c1c(-c2ccc(NS(=O)(=O)C3CC3)cc2)[nH]c2ncnn2c1=O` [Example 11-124, N-{4-[6-(1-methylethyl)-7-oxo-4,7-dihydro[1,2,4]triazolo[1,5-a]pyrimidin-5-yl]phenyl}cyclopropanesulfonamide], the IC50 is 0.00876 µM.
With `CC(C)c1c(-c2cnn(C3CCCCO3)c2)[nH]c2ncnn2c1=O` (stereo not drawn) [Example 11-125, 6-(1-methylethyl)-5-[1-(tetrahydro-2H-pyran-2-yl)-1H-pyrazol-4-yl][1,2,4]triazolo[1,5-a]pyrimidin-7(4H)-one] the figure was 0.00736 µM; with `CC(C)c1c(-c2ccc(N3CCCCC3)nc2)[nH]c2ncnn2c1=O` [Example 11-126, 6-(1-methylethyl)-5-(6-piperidin-1-ylpyridin-3-yl)[1,2,4]triazolo[1,5-a]pyrimidin-7(4H)-one], 0.0104 µM.
In the case of `CC(C)c1c(-c2ccc(N3CCOCC3)nc2)[nH]c2ncnn2c1=O` [Example 11-127, 6-(1-methylethyl)-5-(6-morpholin-4-ylpyridin-3-yl)[1,2,4]triazolo[1,5-a]pyrimidin-7(4H)-one] it was 0.0116 µM; in that of `CC(C)c1c(-c2ccc(-n3cccn3)nc2)[nH]c2ncnn2c1=O` [Example 11-128, 6-(1-methylethyl)-5-[6-(1H-pyrazol-1-yl)pyridin-3-yl][1,2,4]triazolo[1,5-a]pyrimidin-7(4H)-one], 0.0123 µM.
With `CC(C)c1c(-c2ccc(F)nc2)[nH]c2ncnn2c1=O` [Example 11-129, 5-(6-fluoropyridin-3-yl)-6-(1-methylethyl)[1,2,4]triazolo[1,5-a]pyrimidin-7(4H)-one] the figure was 0.0668 µM; with `CC(C)c1c(-c2ccc(CO)nc2)[nH]c2ncnn2c1=O` [Example 11-130, 5-[6-(hydroxymethyl)pyridin-3-yl]-6-(1-methylethyl)[1,2,4]triazolo[1,5-a]pyrimidin-7(4H)-one], 0.0545 µM.
Regarding `CC(C)c1c(-c2ccc(C#N)nc2)[nH]c2ncnn2c1=O` [Example 11-131, 5-[6-(1-methylethyl)-7-oxo-4,7-dihydro[1,2,4]triazolo[1,5-a]pyrimidin-5-yl]pyridine-2-carbonitrile], the IC50 is 0.0487 µM.
With `CC(C)c1c(-c2ccc(C(F)(F)F)nc2)[nH]c2ncnn2c1=O` [Example 11-132, 6-(1-methylethyl)-5-[6-(trifluoromethyl)pyridin-3-yl][1,2,4]triazolo[1,5-a]pyrimidin-7(4H)-one] the figure was 0.0417 µM; with `CC(C)c1c(-c2ccc(C3CC3)nc2)[nH]c2ncnn2c1=O` [Example 11-133, 5-(6-cyclopropylpyridin-3-yl)-6-(1-methylethyl)[1,2,4]triazolo[1,5-a]pyrimidin-7(4H)-one], 0.0444 µM; with `CC(C)c1c(-c2ccn(C(C)(C)C)c2)[nH]c2ncnn2c1=O` [Example 11-134, 5-(1-tert-butyl-1H-pyrrol-3-yl)-6-(1-methylethyl)[1,2,4]triazolo[1,5-a]pyrimidin-7(4H)-one], 0.00508 µM.
For `CC(C)c1c(-c2cc(C(C)(C)C)n[nH]2)[nH]c2ncnn2c1=O` [Example 11-135, 5-(3-tert-butyl-1H-pyrazol-5-yl)-6-(1-methylethyl)[1,2,4]triazolo[1,5-a]pyrimidin-7(4H)-one], the IC50 was determined as 0.061 µM.
With `CC(C)c1c(-c2csc(-c3ccccc3)n2)[nH]c2ncnn2c1=O` [Example 11-136, 6-(1-methylethyl)-5-(2-phenyl-1,3-thiazol-4-yl)[1,2,4]triazolo[1,5-a]pyrimidin-7(4H)-one] the figure was 0.469 µM; with `CC(C)c1c(-c2csc(-n3cccn3)n2)[nH]c2ncnn2c1=O` [Example 11-137, 6-(1-methylethyl)-5-[2-(1H-pyrazol-1-yl)-1,3-thiazol-4-yl][1,2,4]triazolo[1,5-a]pyrimidin-7(4H)-one], 0.0419 µM.
In the case of `CC(C)c1c(-c2ccsc2)[nH]c2ncnn2c1=O` [Example 11-138, 6-(1-methylethyl)-5-thiophen-3-yl[1,2,4]triazolo[1,5-a]pyrimidin-7(4H)-one] it was 0.657 µM.
With `CC(C)c1c(-c2cnco2)[nH]c2ncnn2c1=O` [Example 11-139, 6-(1-methylethyl)-5-(1,3-oxazol-5-yl)[1,2,4]triazolo[1,5-a]pyrimidin-7(4H)-one] the figure was 0.193 µM; with `CC(C)c1c(-c2csc(-n3cccc3)n2)[nH]c2ncnn2c1=O` [Example 11-140, 6-(1-methylethyl)-5-[2-(1H-pyrrol-1-yl)-1,3-thiazol-4-yl][1,2,4]triazolo[1,5-a]pyrimidin-7(4H)-one], 0.124 µM; with `CC(C)c1csc(-c2[nH]c3ncnn3c(=O)c2C(C)C)c1` [Example 11-141, 6-(1-methylethyl)-5-[4-(1-methylethyl)thiophen-2-yl][1,2,4]triazolo[1,5-a]pyrimidin-7(4H)-one], 0.0598 µM.
Take `CC(C)c1c(-c2cc(C3CCC3)cs2)[nH]c2ncnn2c1=O` [Example 11-142, 5-(4-cyclobutylthiophen-2-yl)-6-(1-methylethyl)[1,2,4]triazolo[1,5-a]pyrimidin-7(4H)-one]: the 50% inhibitory concentration (IC50) was 0.112 µM.
In the case of `CC(C)c1c(-c2cc(C3CC3)cs2)[nH]c2ncnn2c1=O` [Example 11-143, 5-(4-cyclopropylthiophen-2-yl)-6-(1-methylethyl)[1,2,4]triazolo[1,5-a]pyrimidin-7(4H)-one] it was 0.0793 µM.
With `CC(C)c1c(-c2cc(-c3ccccc3)cs2)[nH]c2ncnn2c1=O` [Example 11-144, 6-(1-methylethyl)-5-(4-phenylthiophen-2-yl)[1,2,4]triazolo[1,5-a]pyrimidin-7(4H)-one], the IC50 came to 0.0762 µM.
With `CC(C)c1c(-c2cnn(C(C)(C)C)c2)[nH]c2ncnn2c1=O` [Example 11-145, 5-(1-tert-butyl-1H-pyrazol-4-yl)-6-(1-methylethyl)[1,2,4]triazolo[1,5-a]pyrimidin-7(4H)-one] the figure was 0.00508 µM; with `CC(C)CCn1cc(-c2[nH]c3ncnn3c(=O)c2C(C)C)cn1` [Example 11-146, 5-[1-(3-methylbutyl)-1H-pyrazol-4-yl]-6-(1-methylethyl)[1,2,4]triazolo[1,5-a]pyrimidin-7(4H)-one], 0.00522 µM; with `CC(C)c1c(-c2cccs2)[nH]c2ncnn2c1=O` [Example 11-147, 6-(1-methylethyl)-5-thiophen-2-yl[1,2,4]triazolo[1,5-a]pyrimidin-7(4H)-one], 0.413 µM.
With `CC(C)c1c(-c2ccc(C(F)(F)CO)nc2)[nH]c2ncnn2c1=O` [Example 12-2, 5-[6-(1,1-difluoro-2-hydroxyethyl)pyridin-3-yl]-6-(1-methylethyl)[1,2,4]triazolo[1,5-a]pyrimidin-7(4H)-one] the figure was 0.0307 µM.
In the case of `CC(C)c1c(-c2cncc(CO)c2)[nH]c2ncnn2c1=O` [Example 12-3, 5-[5-(hydroxymethyl)pyridin-3-yl]-6-(1-methylethyl)[1,2,4]triazolo[1,5-a]pyrimidin-7(4H)-one] it was 0.0225 µM.
